Experimental data taken from paper PMC7391767, “Molecular mechanisms underlying menthol binding and activation of TRPM8 ion channel” (Nature Communications, 2020).
“And” between values parts separate entries of the source, which are not always exact repeats. Identical values can stand only once. “Also recorded” adds a separate entry of the source. Like-named read-outs stand apart in the source and are kept apart here.

Columns and labels:
[1] = system: TRPM8; details: cited from earlier work
[2] = system: TRPV1; experiment: whole-cell patch-clamp recording in response to a voltage ramp; format: cell-based
Text: (b) Representative whole- cell patch- clamp recording of capsaicin activation of TRPV1 in response to a voltage ramp.

[3] = molecular target: T1, wild-type TRPM8 (Mus musculus, UniProt Q8R4D5); experiment: open probability from noise analysis of macroscopic current and single-channel recordings; format: cell-based; details: wild-type TRPM8; near saturating concentration (menthol 500 µM)
T1 construct: expressed in transfected cells; host or cells: HEK293T
T1 sequence (Q8R4D5 whole entry): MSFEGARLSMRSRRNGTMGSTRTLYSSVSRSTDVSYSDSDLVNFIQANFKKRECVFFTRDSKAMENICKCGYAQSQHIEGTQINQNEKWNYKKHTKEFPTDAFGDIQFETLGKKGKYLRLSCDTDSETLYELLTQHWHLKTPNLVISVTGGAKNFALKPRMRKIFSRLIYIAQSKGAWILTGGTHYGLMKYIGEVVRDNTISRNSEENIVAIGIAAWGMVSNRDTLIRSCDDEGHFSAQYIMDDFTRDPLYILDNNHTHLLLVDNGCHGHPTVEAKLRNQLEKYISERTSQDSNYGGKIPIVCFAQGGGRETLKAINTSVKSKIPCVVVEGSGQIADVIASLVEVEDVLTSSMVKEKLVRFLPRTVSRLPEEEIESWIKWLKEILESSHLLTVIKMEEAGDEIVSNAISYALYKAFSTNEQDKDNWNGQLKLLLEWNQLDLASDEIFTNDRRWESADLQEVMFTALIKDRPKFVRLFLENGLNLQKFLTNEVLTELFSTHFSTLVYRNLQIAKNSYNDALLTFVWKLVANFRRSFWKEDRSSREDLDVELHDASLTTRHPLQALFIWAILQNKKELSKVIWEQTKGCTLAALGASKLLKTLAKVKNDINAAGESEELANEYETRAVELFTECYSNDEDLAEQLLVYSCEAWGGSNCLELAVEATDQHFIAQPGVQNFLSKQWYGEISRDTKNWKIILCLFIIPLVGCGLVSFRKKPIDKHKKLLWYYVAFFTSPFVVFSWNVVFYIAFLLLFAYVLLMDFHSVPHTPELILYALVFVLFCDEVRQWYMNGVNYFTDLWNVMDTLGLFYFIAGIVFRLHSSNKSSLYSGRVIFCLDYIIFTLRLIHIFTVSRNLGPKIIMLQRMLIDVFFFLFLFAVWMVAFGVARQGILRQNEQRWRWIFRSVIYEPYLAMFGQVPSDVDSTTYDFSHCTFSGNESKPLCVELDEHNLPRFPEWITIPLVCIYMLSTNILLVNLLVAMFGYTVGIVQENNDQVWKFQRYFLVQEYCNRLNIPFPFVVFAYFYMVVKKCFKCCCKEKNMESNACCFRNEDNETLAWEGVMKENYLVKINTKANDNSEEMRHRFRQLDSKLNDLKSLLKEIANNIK
Procedure: (§1) Patch-clamp recordings were performed with a HEKA EPC10 amplifier controlled by PatchMaster software (HEKA). Whole-cell recordings were performed at ±80 mV. Patch pipettes were prepared from borosilicate glass and fire-polished to resistance of ~4 MΩ. For whole-cell recording, serial resistance was compensated by 60%. For single-channel recordings, patch pipettes were fire-polished to a higher resistance of 6-to-10 MΩ and then recorded in the inside-out configuration. To maximize the chance of obtaining a patch with only one channel, single-channel recordings were performed about 8 h after transfection. A solution with 130 mM NaCl, 10 mM glucose, 0.2 mM EDTA, and 3 mM HEPES (pH 7.2) was used in both bath and pipette for either whole-cell or single-channel recordings. Membrane potential was clamped at +80 mV for single-channel recordings. Current was sampled at 10 kHz and filtered at 2.9 kHz. All recordings were performed at room temperature (22 °C) with the maximum variation of 1 °C.
From single-channel recordings, the open probability (Po) was calculated after events detection with a hidden Markov approach in the software QuB[49] (http://www.qub.buffalo.edu/). A dead time of 0.32 ms was imposed. As a complementary approach, Po was also estimated from noise analysis[52] of whole-cell recordings. Briefly, the mean current amplitude (I), the squared deviations in current amplitude from the mean value (σ^2), and the single-channel current (i) were measured experimentally from a membrane patch of ion channels. Then the number of ion channels clamped in that patch (N) was determined as3 N=I^2/i⋅I−σ^2.
The maximum current when each of ion channel is at the open state with a Po of 1 is equal to i × N. Then the open probability was calculated as the ratio between the measured macroscopic current and the maximum current calculated by noise analysis. To estimate channel conductance, current amplitude was estimated from all-point histogram of single-channel recordings.

[4] = molecular target: T2, TRPM8 Y745F (Mus musculus, UniProt Q8R4D5, Y745F); experiment: whole-cell patch-clamp and thermodynamic mutant cycle analysis; format: cell-based
T2 construct: expressed in transfected cells; host or cells: HEK293T
T2 sequence (Q8R4D5 whole entry Y745F): as the sequence (Q8R4D5 whole entry) above, with Y745F counted along it
Procedure: Murine TRPM8 was used in this study. Point mutations were made by Fast Mutagenesis Kit V2 (SBS Genetech). Primers used to generate point mutations are summarized in Supplementary Table 2. All mutations were confirmed by sequencing.
(§2) HEK293T cells purchased from Kunming Cell Bank, Kunming Institute of Zoology, Chinese Academy of Sciences (ATCC, CRL-3216) were cultured in Dulbecco’s modified Eagle’s medium supplemented with 20 mM L-glutamine and 10% fetal bovine serum. Cells were transiently transfected with cDNA constructs by Lipofectamine 3000 (Life Technologies) following the manufacturer’s protocol. Patch-clamp recordings were performed 1–2 days after transfection.
as §1
(§3) Ligands such as menthol and its analogs were perfused to membrane patch by a gravity-driven system (RSC-200, Bio-Logic). Bath and ligand solution were delivered through separate tubes to minimize the mixing of solutions. Patch pipette was placed in front of the perfusion tube outlet.
(§4) Data from whole-cell recordings were analyzed in Igor Pro version 6.1 (WaveMatrix). EC50 values were derived from fitting a Hill equation to the concentration–response relationship. Changes in EC50 by point mutation may be caused by either perturbation of ligand bind or channel gating or both. To distinguish these possibilities, dissociation constant (Kd) for ligand binding was estimated assuming the following gating scheme:1 C0↔KdC1↔LO, where L is the equilibrium constant for the final closed-to-open transition.
(§5) To perform thermodynamic cycle analysis, Kd values of four channel-ligand combinations (WT channel, menthol: Kd _1; Mutant channel, menthol: Kd _2; WT channel, menthol analog: Kd _3; Mutant channel, menthol analog: Kd _4) were determined separately. The strength of coupling was determined by the coupling energy (kT multiplied by LnΩ, where k is the Boltzmann constant and T is temperature in Kelvin). LnΩ was calculated by Eq. (2) as[51]2 LnΩ=LnKd_1⋅Kd_4/Kd_2⋅Kd_3.

[5] = molecular target: T1, wild-type TRPM8; experiment: whole-cell patch-clamp recording of ligand activation; format: cell-based
Procedure: (§6) Murine TRPM8 was used in this study. Point mutations were made by Fast Mutagenesis Kit V2 (SBS Genetech). Primers used to generate point mutations are summarized in Supplementary Table 2.
Cells were transiently transfected with cDNA constructs by Lipofectamine 3000 (Life Technologies) following the manufacturer’s protocol. Patch-clamp recordings were performed 1–2 days after transfection.
as §1, §3
as §4, with “Changes in EC50 by point mutation may be caused by either perturbation of ligand bind or channel gating or both.” left out

[6] = molecular target: T3, TRPM8 L797A (Mus musculus, UniProt Q8R4D5, L797A); experiment: whole-cell patch-clamp and thermodynamic mutant cycle analysis; format: cell-based
T3 construct: expressed in transfected cells; host or cells: HEK293T
T3 sequence (Q8R4D5 whole entry L797A): as the sequence (Q8R4D5 whole entry) above, with L797A counted along it
Procedure: as §6, §2, §1, §3
as §4, with “Changes in EC50 by point mutation may be caused by either perturbation of ligand bind or channel gating or both.” left out
as §5

[7] = molecular target: T4, TRPM8 D802L (Mus musculus, UniProt Q8R4D5, D802L); experiment: as above; format: cell-based
T4 construct: expressed in transfected cells; host or cells: HEK293T
T4 sequence (Q8R4D5 whole entry D802L): as the sequence (Q8R4D5 whole entry) above, with D802L counted along it
Procedure: as §6, §2, §1, §3
as §4, with “Changes in EC50 by point mutation may be caused by either perturbation of ligand bind or channel gating or both.” left out
as §5

[8] = molecular target: T5, TRPM8 W798A (Mus musculus, UniProt Q8R4D5, W798A); experiment: as above; format: cell-based
T5 construct: expressed in transfected cells; host or cells: HEK293T
T5 sequence (Q8R4D5 whole entry W798A): as the sequence (Q8R4D5 whole entry) above, with W798A counted along it
Procedure: as §6, §2, §1, §3
as §4, with “Changes in EC50 by point mutation may be caused by either perturbation of ligand bind or channel gating or both.” left out
as §5

[9] = molecular target: T6, TRPM8 D802S (Mus musculus, UniProt Q8R4D5, D802S); experiment: as above; format: cell-based
T6 construct: expressed in transfected cells; host or cells: HEK293T
T6 sequence (Q8R4D5 whole entry D802S): as the sequence (Q8R4D5 whole entry) above, with D802S counted along it
Procedure: as §6, §2, §1, §3
as §4, with “Changes in EC50 by point mutation may be caused by either perturbation of ligand bind or channel gating or both.” left out
as §5

[10] = molecular target: T7, TRPM8 D802I (Mus musculus, UniProt Q8R4D5, D802I); experiment: as above; format: cell-based
T7 construct: expressed in transfected cells; host or cells: HEK293T
T7 sequence (Q8R4D5 whole entry D802I): as the sequence (Q8R4D5 whole entry) above, with D802I counted along it
Procedure: as §6, §2, §1, §3
as §4, with “Changes in EC50 by point mutation may be caused by either perturbation of ligand bind or channel gating or both.” left out
as §5

[11] = molecular target: T8, TRPM8 R842K (Mus musculus, UniProt Q8R4D5, R842K); experiment: as above; format: cell-based
T8 construct: expressed in transfected cells; host or cells: HEK293T
T8 sequence (Q8R4D5 whole entry R842K): as the sequence (Q8R4D5 whole entry) above, with R842K counted along it
Procedure: as §6, §2, §1, §3
as §4, with “Changes in EC50 by point mutation may be caused by either perturbation of ligand bind or channel gating or both.” left out
as §5

[12] = molecular target: T9, TRPM8 Y1005F (Mus musculus, UniProt Q8R4D5, Y1005F); experiment: as above; format: cell-based
T9 construct: expressed in transfected cells; host or cells: HEK293T
T9 sequence (Q8R4D5 whole entry Y1005F): as the sequence (Q8R4D5 whole entry) above, with Y1005F counted along it
Procedure: as §6, §2, §1, §3
as §4, with “Changes in EC50 by point mutation may be caused by either perturbation of ligand bind or channel gating or both.” left out
as §5

[13] = mutant cycle menthol vs labelled analog

C[C@H](c1ccc(F)cc1)N(Cc1cccc(C(=O)O)c1)C(=O)c1cnc2ccccc2c1 [PF-05105679]
effect on cold-related pain [1]: effectively suppress cold-related pain
temperature sensation (side effect) ([1]; patients, clinical trials): side effects of altering temperature sensation; also recorded: altered temperature sensation in patients

COc1cc(CNC(=O)CCCC/C=C/C(C)C)ccc1O [capsaicin]
effect of deep hyperpolarization on ligand-activated channel [2]: not antagonized

CC(C)[C@@H]1CC[C@@H](C)CC1=O [menthone, (−)-menthone]
maximum open probability (Po max) [3]: 0.48 ± 0.05
Ratio X2 (Kd menthol / Kd labelled analog) [4]: 1.11
Omega(X1/X2) ([4]; menthol vs labelled analog): 0.56
Coupling Energy [4, 13]: 0.59 kT
L (equilibrium constant between closed and open states upon ligand binding), Ave ([5]; WT): 0.9574
L, single recording ([5]; WT): 1.13 and 1.132 and 0.6097
Ratio X1 (Kd menthol / Kd labelled analog) ([5]; WT): 0.62
concentration–response curve value, ave ([5]; WT, 100 microM): 0.02705
concentration–response curve value, single recording ([5]; WT, 100 microM): 0.02655 and 0.02755
concentration–response curve value, ave ([5]; WT, 700 microM): 0.1118
concentration–response curve value, single recording ([5]; WT, 700 microM): 0.1118
concentration–response curve value, ave ([5]; WT, 800 microM): 0.223
concentration–response curve value, ave ([5]; WT, 1000 microM): 0.4153
concentration–response curve value, single recording ([5]; WT, 1000 microM): 0.3958 and 0.4096 and 0.4406
concentration–response curve value, ave ([5]; WT, 5000 microM): 0.5864
concentration–response curve value, single recording ([5]; WT, 5000 microM): 0.584 and 0.6851 and 0.4903
concentration–response curve value, ave ([5]; WT, 10000 microM): 0.596
concentration–response curve value, single recording ([5]; WT, 10000 microM): 0.562 and 0.63
Kd ([5]; WT, read-out: Kd, single recording): 1400 µM and 2020 µM and 1340 µM
EC50 ([5]; wild-type TRPM8, Hill equation fit of concentration–response, patch-clamp): 813 ± 84.3 µM
Ratio X2 (Kd menthol / Kd labelled analog) [6]: 1.22
Omega(X1/X2) ([6]; menthol vs labelled analog): 0.51
Coupling Energy [6, 13]: 0.67 kT
Ratio X2 (Kd menthol / Kd labelled analog) [7]: 3.06
Omega(X1/X2) ([7]; menthol vs labelled analog): 0.20
Coupling Energy [7, 13]: 1.60 kT
Ratio X2 (Kd menthol / Kd labelled analog) [8]: 0.21
Omega(X1/X2) ([8]; menthol vs labelled analog): 2.89
Coupling Energy [8, 13]: 1.06 kT
Ratio X2 (Kd menthol / Kd labelled analog) [9]: 2.58
Omega(X1/X2) ([9]; menthol vs labelled analog): 0.24
Coupling Energy [9, 13]: 1.42 kT
Ratio X2 (Kd menthol / Kd labelled analog) [10]: 1.35
Omega(X1/X2) ([10]; menthol vs labelled analog): 0.46
Coupling Energy [10, 13]: 0.78 kT
L (equilibrium constant between closed and open states upon ligand binding), Ave [11]: 0.246
Ratio X2 (Kd menthol / Kd labelled analog) [11]: 4.90
concentration–response curve value, ave ([11]; 800 microM): 0.04014
concentration–response curve value, single recording ([11]; 800 microM): 0.05631 and 0.03329 and 0.03847 and 0.03248
concentration–response curve value, ave ([11]; 1000 microM): 0.05391
concentration–response curve value, single recording ([11]; 1000 microM): 0.07259 and 0.05411 and 0.04679 and 0.04215
concentration–response curve value, ave ([11]; 5000 microM): 0.1385
Kd ([11]; calculated from concentration–response curves, read-out: Kd, Ave): 1780 µM
Omega(X1/X2) ([11]; menthol vs labelled analog): 0.13
Coupling Energy [11, 13]: 2.07 kT
Kd ([11]; read-out: Kd, single recording): 1120 µM and 2990 µM and 1510 µM and 1500 µM
Ratio X2 (Kd menthol / Kd labelled analog) [12]: 0.15
Omega(X1/X2) ([12]; menthol vs labelled analog): 4.12
Coupling Energy [12, 13]: 1.42 kT
